US8008280B2, “Betulinol derivatives as anti-HIV agents” (priority 2004, dated 2011)
Read-outs that look alike come from different tables or passages of the source.

How the values were obtained:
[1] = test system: HIV-1 IIIB isolate; assay: HIV-1 inhibitory effect, p24 antigen capture ELISA, acutely infected 174XCEM cells; type: cell-based; conditions: 1 μg/ml (in DMSO); 4 days culture
[2] = test system: 174XCEM; assay: Effect on cell viability, trypan blue dye exclusion; conditions: trypan blue dye exclusion at four days and seven days
Method: Human T-B hybridoma cell line 174XCEM was exposed to a low multiplicity of infection (“MOI”) (MOI=1.0) of stock HIV-1 IIIB isolate for 2 hours at 37° C., washed ×3 with phosphate buffered saline (“PBS”), then plated at 250,000 cells/well in the presence of various agents, shown in Table 10. Dimethyl sulfoxide (“DMSO”) buffer was used as a […] control. A commercially available synthetic peptide, thrombospondin peptide (“TSP”), known as having HIV-1 inhibitory activity, was used as an “inhibitory activity” control. Two HIV isolates were used, a patient isolate (“child HIV”), and the standard CXCR4 co-receptor utilizing isolate IIIB.
The cell samples were assessed by trypan blue dye exclusion at four days and seven days.

[3] = test system: AZT-resistant strain; assay: Anti-HIV activity against AZT-resistant patient isolates in MT-2 cells; type: cell-based
From the text: These isolates were used to infect MT-2 cells in vitro.

[4] = test system: another HIV-1 isolate; assay: Effect on 174XCEM cells chronically infected with another HIV-1 isolate; type: cell-based; conditions: chronically infected 174XCEM cells; betulin diacetate single dose 1 μg/ml
Method: Agents were also evaluated for an effect on 174XCEM cells chronically infected with another HIV-1 isolate.

[5] = Solubility in DMSO diluted with culture medium (GC, standard solubility curve); type: physicochemical
Method: The residue was dissolved in chloroform analyzed on GC.
Ethyl ether was then evaporated.

[6] = Solubilization in PBS containing human γ-globulin, human albumin and ethanol; type: physicochemical; conditions: 1 × 10^−3 mol/L
[7] = Solubility of betulonic acid in human serum; type: physicochemical; conditions: 1.34 mg in 31 μL neat ethanol diluted with 700 μL human serum; 4.2% final ethanol
[8] = In vivo tolerability in mice with prostate cancer cell xenografts; conditions: final concentration of 22% ethanol and 2×10−3 mol per liter of betulonic acid
[9] = test system: cells; conditions: cited from earlier work
[10] = test system: carcinoma cell line CO-115 of the large intestine; conditions: carcinoma cell line CO-115 (Ukkonen et al.); cited from earlier work
[11] = 1.0 mg in culture medium containing 20% DMSO

C=C(C)[C@@H]1CC[C@]2(CO)CC[C@]3(C)[C@H](CC[C@@H]4[C@@]5(C)CC[C@H](OC(C)=O)C(C)(C)[C@@H]5CC[C@]43C)[C@@H]12 [3-acetoxy betulin, 3-Acetoxy Betulin]
anti-HIV-1 activity (HIV-1 gag (p24) antigen, OD units, FIG. 6) [1]: anti-HIV-1 activity superior to that previously disclosed in the art for other betulinol derivatives
effect on total cell number or cell viability [2]: no effect on total cell number or cell viability

Cc1cn([C@H]2C[C@H](N=[N+]=[N-])[C@@H](CO)O2)c(=O)[nH]c1=O [AZT, 3′-azido-3′-deoxythymidine, reference compound]
inhibition in the HIV infection, AZT-resistant strain ([3]; day 5 (FIG. 14)): ineffective

C=C(C)[C@@H]1CC[C@]2(C=O)CC[C@]3(C)[C@H](CC[C@@H]4[C@@]5(C)CCC(=O)C(C)(C)[C@@H]5CC[C@]43C)[C@@H]12 [betulone aldehyde, Betulon Aldehyde]
inhibition (release of virus from chronically infected cells) [4]: minimal effect

C=C(C)C1CCC2(C(=O)O)CC[C@]3(C)[C@H](CC[C@@H]4[C@@]5(C)CCC(=O)C(C)(C)[C@@H]5CC[C@]43C)C12 (stereo partly shown) [betulonic acid, Betulonic Acid]
inhibition in the HIV infection, AZT-resistant strain ([3]; day 5 (FIG. 14)): 44%
inhibition in the HIV infection, AZT-resistant strain ([3]; day 8 (FIG. 15)): increased further
Con. in culture medium containing 20% DMSO [5]: 0.001 mol/L
amount of betulonic acid dissolved ([5]; 3 mg in culture medium containing 10% FBS with 1% DMSO, supernatant after centrifugation): 0.4 mg
Observation ([6]; 1.0 mg, ethanol 220 μL, γ-globulin 1.48 mL, albumin 0.49 mL): Cloudy
Observation ([6]; 1.3 mg, ethanol 280 μL, γ-globulin (27 mg/mL in PBS) 2.50 mL, albumin (42 mg/mL in PBS) 0 mL): Suspension
Observation [7]: Clear Solution
tolerability [8]: well tolerated
cytotoxicity, interfering with the proliferation of cells [9]: cytotoxic

C=C(C)[C@@H]1CC[C@]2(COC(C)=O)CC[C@]3(C)[C@H](CC[C@@H]4[C@@]5(C)CC[C@H](O)C(C)(C)[C@@H]5CC[C@]43C)[C@@H]12 [28-acetoxy betulin, 28-Acetoxy Betulin]
anti-HIV-1 activity (HIV-1 gag (p24) antigen, OD units, FIG. 6) [1]: anti-HIV-1 activity superior to that previously disclosed in the art for other betulinol derivatives
effect on total cell number or cell viability [2]: no effect on total cell number or cell viability

C=C(C)C1CCC2(COC)CCC3(C)C(CCC4C5(C)CCC(OC)C(C)(C)C5CCC43C)C12 (stereo not shown) [betulin dimethyl ether, Betulin Dimethyl ether]
anti-HIV-1 activity (HIV-1 gag (p24) antigen, OD units, FIG. 6) [1]: anti-HIV-1 activity superior to that previously disclosed in the art for other betulinol derivatives
effect on total cell number or cell viability [2]: no effect on total cell number or cell viability

C=C(C)C1CCC2(C(=O)NCCCCC(NC(=O)C(CCCCNC(=O)C34CCC(C(=C)C)C3[C@@H]3CC[C@H]5[C@]6(C)CCC(=O)C(C)(C)[C@H]6CC[C@]5(C)[C@@]3(C)CC4)NC(=O)OC(C)(C)C)C(=O)O)CC[C@]3(C)[C@H](CC[C@@H]4[C@@]5(C)CCC(=O)C(C)(C)[C@@H]5CC[C@]43C)C12 (stereo partly shown) [Boc-Dimer]
Concentration of drug (mg/mL) [5, 11]: 0.6 mg/mL
Concentration of drug (mol/L) [5, 11]: 0.0005 mol/L
Con. in culture medium containing 20% DMSO ([5]; calculated (nominal) concentration): 0.0005 mol/L

C=C(C)C1CCC2(CO)CC[C@]3(C)[C@H](CC[C@@H]4[C@@]5(C)CCC(O)C(C)(C)[C@@H]5CC[C@]43C)C12 (stereo partly drawn) [betulinol, lup-20(29)-ene-3β, 28-diol]
inhibition (release of virus from chronically infected cells) [4]: minimal effect

C=C(C)[C@@H]1CC[C@]2(COC(C)=O)CC[C@]3(C)[C@H](CC[C@@H]4[C@@]5(C)CC[C@H](OC(C)=O)C(C)(C)[C@@H]5CC[C@]43C)[C@@H]12 [betulin diacetate, Betulin Diacetate]
inhibition (release of virus from chronically infected cells) [4]: 20%

C=C(C)[C@@H]1CC[C@]2(C(=O)O)CC[C@]3(C)[C@H](CC[C@@H]4[C@@]5(C)CC[C@H](O)C(C)(C)[C@@H]5CC[C@]43C)[C@@H]12 [betulinic acid, Betulinic Acid]
cytotoxic activity, LD 50 [10]: 0.375 mg/mL

C=C(C)C1CCC2(C(=O)NCCCCC(NC(=O)OC(C)(C)C)C(=O)O)CC[C@]3(C)[C@H](CC[C@@H]4[C@@]5(C)CCC(=O)C(C)(C)[C@@H]5CC[C@]43C)C12 (stereo partly shown) [Boc-Monomer]
Con. in culture medium containing 20% DMSO [5]: 0.001 mol/L
tolerability [8]: well tolerated
